Like-named read-outs stand apart in the source and are kept apart here.
System: HeLa cells
Assay: Lipofection of HeLa cells with pCMV-luc / Rotifect Plus; transfection efficiency by luciferase reporter assay
Type: cell-based
Settings: for Results in RLU (averages of three tests): inhibitors added 2 hours before and during transfection, luciferase assay after 24 hours; for Results in RLU/μg protein (averages): carried out analogously with Example 1
Procedure: The transfection efficiency was measured indirectly using a luciferase enzyme, which was coded by the inserted nucleic acid. This is a reporter gene system. These are established systems for detecting the transfection efficiency. Thus, the greater the amount of luciferase which can be detected in a culture vessel after lysis of the transfected cells, the greater the transfection efficiency. The amount of luciferase is detected by way of an enzyme substrate reaction in which a light quantum is released. These light quanta can be measured by suitable measurement devices known as luminometers. Since the number of light quanta measured is dependent in particular on the time interval in which the measurement took place, this light quantum amount is also denoted as “relative light units”. For comparative studies, the measurement conditions must therefore be identical. […] In both examples, for the treatment using the IKKe/TBK1 inhibitor and an inhibitor for a nucleic-acid-detecting toll-like receptor a significant improvement can be observed, and also cannot be explained merely by simple addition of the individual rates of increase for TKKe/TBK1 inhibitor and an inhibitor for a nucleic-acid-detecting toll-like receptor. This is thus clearly a synergistic effect. The following was used as general material: • 1. HeLa cells; ATTC CCL-2 • 2. Rotifect Plus, Carl Roth; Cat. No.: CL21.2 • 3. 48-well plates; Cellstar; Greiner BioOne; Cat. No.: 677180 • 4. DMEM; high-glucose; Biowest, w/stable glutamine/sodium pyruvate, Cat. No.: L103-500 • 5. Serum FBS Gold; PAN Biotech; Batch No. P130914: Cat. No.: P40-37500 • 6. pCMV-luc, Plasmid Factory, Cat. No.: PF461 • 7. Luciferase Assay Kit, Promega • 8. Dimethyl sulphoxide (DMSO for molecular biology), Fluka; Cat. No.: 41639 • 9. […] No.: 204001 • 10. […] Fluka; Cat. No.: C6628 • 11. […] TCI: Cat. No.: Q0056 The first embodiment, shown in FIG. 1, relates to lipofection of HeLa cells with a conventional commercial transfection reagent (Rotifect Plus), which were treated with the inhibitor BX795 for IKKe and TBK1 and with chloroquine as an inhibitor for TLR9 before and during the transfection. The lipofection of the HeLa cells was carried out over a 3-day period: […] HeLa cells were seeded into a 48-well plate. A cell count of 1*10^5 cells per well was plated in 250 μl complete DMEM medium (10% FCS). This was followed by incubation in a CO2 incubator (10%) for 24 hours. […] This was followed by incubation in a CO2 incubator (10%) for 24 hours. The efficiency of the transfection was determined using a luciferase assay kit. The assay was carried out in accordance with the manufacturer's instructions. The second embodiment, shown in FIG. 2, relates to lipofection of HeLa cells, which were treated with the inhibitor BX795 for IKKe and TBK1 and with quinacrine as an inhibitor for TLR9 before and during the transfection. The lipofection of the HeLa was carried out analogously with Example 1.

[1] = Example 1, FIG. 1, HeLa cells, BX795 0.5 μM, chloroquine 10 μM
[2] = Example 1, HeLa cells, BX795 0.5 μM, chloroquine 10 μM
[3] = Example 2, FIG. 2, HeLa cells, BX795 0.5 μM, quinacrine 2.5 μM
[4] = Example 2, HeLa cells, BX795 0.5 μM, quinacrine 2.5 μM
[5] = Homo sapiens, HeLa, Example 2, FIG. 2, HeLa cells, BX795 0.5 μM, quinacrine 2.5 μM, read-out: transfection efficiency normalised to transfection without inhibitors (ST = 100%)

| SMILES | Results in RLU (averages of three tests) [1] [RLU] | increase over standard transfection [2] [%] | Results in RLU/μg protein (averages) [3] [RLU/μg protein] | increase over standard transfection [4] [%] | activity at 0.5 µM (Homo sapiens, HeLa, Example 1, FIG. 1, HeLa cells, BX795 0.5 μM, chloroquine 10 μM, read-out: transfection efficiency normalised to transfection without inhibitors (ST = 100%)) [%] | activity at 0.5 µM [5] [%] | activity at 10 µM (Homo sapiens, HeLa, read-out: transfection efficiency normalised to transfection without inhibitors (ST = 100%)) [%] | activity at 2.5 µM [5] [%] |
| --- | --- | --- | --- | --- | --- | --- | --- | --- |
| O=C(NCCCNc1nc(Nc2cccc(NC(=O)N3CCCC3)c2)ncc1I)c1cccs1 [BX795] | 50282 | 256 | 27260 | 285 | 356 | 141 |  |  |
| CCN(CC)CCCC(C)Nc1ccnc2cc(Cl)ccc12 (stereo not drawn) [Chloroquine] | 46817 | 19 |  |  |  |  | 119 |  |
| CCN(CC)CCCC(C)Nc1c2ccc(Cl)cc2nc2ccc(OC)cc12 (stereo not drawn) [Quinacrine, quinacrine] |  |  | 73924 | 41 |  |  |  | 385 |
